#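 Dose response: 5 concentrations. Exposure: 48 h. Format: 96-well plates. Endpoint: linear interpolation; highest concentration if not reached. GI50 = concentration required for 50% inhibition of growth.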 Calls of active or inactive are those of the source. No stated cut-off is given here; in the data, active = GI50 up to about 1.1 µM and inactive = higher.
# Legend:
# Assay in all cases: NCI-60 cell line screen, 48 h
# [1] = test system: MDA-MB-435
# [2] = test system: SK-MEL-28
# [3] = test system: A498
# [4] = test system: HL-60
# [5] = test system: SNB-19
# [6] = test system: HCT-15
# [7] = test system: UACC-257
# [8] = test system: A549
# [9] = test system: SK-MEL-2
# [10] = test system: UO-31
# [11] = test system: CCRF-CEM
# [12] = test system: LOX IMVI
# [13] = test system: SN12C
# [14] = test system: NCI/ADR-RES
# [15] = test system: SW-620
# [16] = test system: U-251
# [17] = test system: OVCAR-8
# [18] = test system: IGROV-1
# [19] = test system: ACHN
SMILES,GI50 [1],GI50 [2],GI50 [3],GI50 [4],GI50 [5],GI50 [6],GI50 [7],GI50 [8],GI50 [9],GI50 [10],GI50 [11],GI50 [12],GI50 [13],GI50 [14],GI50 [15],GI50 [16],GI50 [17],GI50 [18],GI50 [19]
CCCc1c(Cl)nc(Cl)nc1Cl,0.471 µM (active),0.336 µM (active),19.5 µM (inactive),0.48 µM (active),4.71 µM (inactive),0.327 µM,2.13 µM (inactive),4.63 µM (inactive),0.352 µM (active),25.4 µM (inactive),0.0265 µM (active),< 0.01 µM (active),0.467 µM (active),0.845 µM (active),0.16 µM (active),1.22 µM (inactive),1.05 µM (active),0.787 µM (active),1.64 µM (inactive)
CC(C)/C=N\N1C(N)=C(C#N)C(C#N)(C#N)C1C(C)C (centres undefined),23.4 µM (inactive),47 µM (inactive),51.3 µM (inactive),32.4 µM (inactive),> 100 µM (inactive),32.7 µM,47.5 µM (inactive),60.4 µM (inactive),67.3 µM (inactive),38 µM (inactive),36.2 µM (inactive),31.8 µM (inactive),69.8 µM (inactive),31.3 µM (inactive),34.6 µM (inactive),39.6 µM (inactive),25.1 µM (inactive),39.9 µM (inactive),65.3 µM (inactive)
CC[C@]1(Cc2ccc(OC)c(OC)c2)C=[N+]([O-])O[C@H](OC2CCCCC2c2ccccc2)[C@@H]1OC(C)=O (some centres undefined),50.6 µM (inactive),61.7 µM (inactive),> 100 µM (inactive),18.1 µM (inactive),92.5 µM (inactive),37.2 µM,67.3 µM (inactive),41.5 µM (inactive),46.1 µM (inactive),41.2 µM (inactive),23.2 µM (inactive),40.9 µM (inactive),36.6 µM (inactive),41.8 µM (inactive),40.2 µM (inactive),46.6 µM (inactive),50.6 µM (inactive),39.4 µM (inactive),30.5 µM (inactive)
Cc1cc2[nH]c(=NS(=O)(=O)c3cc(C)c(Cl)cc3S)[nH]c2cc1C,65.5 µM (inactive),> 100 µM (inactive),> 100 µM (inactive),28.7 µM (inactive),56.6 µM (inactive),73.3 µM,> 100 µM (inactive),35.7 µM (inactive),> 100 µM (inactive),84.5 µM (inactive),21.4 µM (inactive),28.9 µM (inactive),> 100 µM (inactive),91.4 µM (inactive),43.4 µM (inactive),36.2 µM (inactive),77.3 µM (inactive),96.4 µM (inactive),73.8 µM (inactive)
O=C1c2ccccc2CC12Cc1ccccc1C2,55 µM (inactive),> 100 µM (inactive),> 100 µM (inactive),16.6 µM (inactive),> 100 µM (inactive),49.7 µM,18.9 µM (inactive),37.3 µM (inactive),45.3 µM (inactive),40.1 µM (inactive),48.3 µM (inactive),35.8 µM (inactive),69.3 µM (inactive),25.2 µM (inactive),> 100 µM (inactive),60.7 µM (inactive),80.4 µM (inactive),87.5 µM (inactive),63.1 µM (inactive)
CN/N=C(\C)C(CN(C)C)C(c1ccccc1)c1c(O)c2ccccc2oc1=O (centres undefined),> 100 µM (inactive),> 100 µM (inactive),> 100 µM (inactive),29.7 µM (inactive),> 100 µM (inactive),> 100 µM,> 100 µM (inactive),> 100 µM (inactive),> 100 µM (inactive),> 100 µM (inactive),73.6 µM (inactive),> 100 µM (inactive),> 100 µM (inactive),> 100 µM (inactive),> 100 µM (inactive),> 100 µM (inactive),> 100 µM (inactive),> 100 µM (inactive),> 100 µM (inactive)
Brc1ccc(-c2nc(-c3ccc(Br)cc3)n(-c3ccccc3)n2)cc1,46.7 µM (inactive),> 100 µM (inactive),> 100 µM (inactive),34.8 µM (inactive),> 100 µM (inactive),> 100 µM,81.1 µM (inactive),61.8 µM (inactive),> 100 µM (inactive),> 100 µM (inactive),20.6 µM (inactive),> 100 µM (inactive),> 100 µM (inactive),> 100 µM (inactive),> 100 µM (inactive),> 100 µM (inactive),> 100 µM (inactive),> 100 µM (inactive),> 100 µM (inactive)
COc1c(OC)c(OC)c(C(=O)/C=C/c2ccccc2)c(OC)c1OC,5.06 µM (inactive),13.4 µM (inactive),4.28 µM (inactive),7.11 µM (inactive),12.4 µM (inactive),10.6 µM,14.3 µM (inactive),12.5 µM (inactive),12.6 µM (inactive),10.5 µM (inactive),1.96 µM (inactive),10 µM (inactive),10.6 µM (inactive),11.5 µM (inactive),6.95 µM (inactive),7.46 µM (inactive),10.3 µM (inactive),11.3 µM (inactive),11.7 µM (inactive)
CNCCCNC1(c2cc3ccccc3s2)CCCCC1,2.55 µM (inactive),1.64 µM (inactive),3.37 µM (inactive),1.43 µM (inactive),12.1 µM (inactive),8.43 µM,1.76 µM (inactive),7 µM (inactive),4.59 µM (inactive),2.32 µM (inactive),1.66 µM (inactive),2.79 µM (inactive),5.52 µM (inactive),14.9 µM (inactive),12.3 µM (inactive),4.65 µM (inactive),14.5 µM (inactive),12.8 µM (inactive),14 µM (inactive)
CC1OC2(CC(OCc3ccccc3)C1OCc1ccccc1)OCCO2 (centres undefined),57 µM (inactive),> 100 µM (inactive),12.8 µM (inactive),20 µM (inactive),44.3 µM (inactive),28.2 µM,34.8 µM (inactive),50.7 µM (inactive),78.5 µM (inactive),42.3 µM (inactive),34.4 µM (inactive),33.6 µM (inactive),21.4 µM (inactive),39.1 µM (inactive),70 µM (inactive),44.5 µM (inactive),> 100 µM (inactive),> 100 µM (inactive),61.8 µM (inactive)
COc1cc2c(/C=C3/C(=O)N(c4ccccc4)c4ccccc43)c(Cl)[nH]c2cc1C,0.998 µM (active),3.57 µM (inactive),6.46 µM (inactive),2.31 µM (inactive),4.55 µM (inactive),2.83 µM,3.82 µM (inactive),3.41 µM (inactive),2.72 µM (inactive),2.88 µM (inactive),1.71 µM (inactive),2.94 µM (inactive),2.31 µM (inactive),2.11 µM (inactive),2.84 µM (inactive),3.24 µM (inactive),2.12 µM (inactive),2.7 µM (inactive),3.44 µM (inactive)
